In PubChem BioAssay (NCI):
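Five concentrations, 48 hours, 96-well plates. GI50: concentration for 50% inhibition of growth. The concentration for full growth arrest is given as TGI.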

What was measured:
Assay in all cases: NCI tumour cell line growth inhibition, 48 h
[1] = system: MALME-3M melanoma
[2] = system: OVCAR-3 ovarian
[3] = system: M14 melanoma
[4] = system: MDA-MB-231 breast
[5] = system: SF-295 CNS
[6] = system: RPMI-8226 leukemia
[7] = system: MOLT-4 leukemia
[8] = system: SK-MEL-2 melanoma
[9] = system: SNB-19 CNS
[10] = system: TK-10 renal

| SMILES | GI50 [1] [µM] | TGI [1] [µM] | GI50 [2] [µM] | TGI [2] [µM] | GI50 [3] [µM] | TGI [3] [µM] | GI50 [4] [µM] | TGI [4] [µM] | GI50 [5] [µM] | TGI [5] [µM] | GI50 [6] [µM] | TGI [6] [µM] | GI50 [7] [µM] | TGI [7] [µM] | GI50 [8] [µM] | TGI [8] [µM] | GI50 [9] [µM] | TGI [9] [µM] | GI50 [10] [µM] | TGI [10] [µM] |
| --- | --- | --- | --- | --- | --- | --- | --- | --- | --- | --- | --- | --- | --- | --- | --- | --- | --- | --- | --- | --- |
| COC(=O)[C@]12CC[C@@H](C)[C@H](C)[C@@H]1C1=CC[C@@H]3[C@@]4(C)C=C(O)C(=O)C(C)=C4CC[C@@]3(C)[C@]1(C)CC2 | 22.4 | 42.8 | 11.6 | 24.5 | 11 | 29 | 13 | 30.2 | 15.8 | 37.9 | 8.62 | 32.8 | 4.71 | 20.7 | 14.6 | 31.6 | 18.7 | 40.9 | 18.2 | 35.8 |
| C[C@@]12CCC[C@@](C)(C(=O)O)C1CC[C@@]13CC(=O)[C@@](CO)(CCC12)C3 (stereo not given in full) | > 100 | > 100 | > 100 | > 100 | > 100 | > 100 | > 100 | > 100 | > 100 | > 100 | > 100 | > 100 | > 100 | > 100 | > 100 | > 100 | > 100 | > 100 | > 100 | > 100 |
| CCN1CCCCC(=N\O)/C(=N/O)CCCC1 | – | > 100 | – | > 100 | – | > 100 | – | > 100 | – | > 100 | – | > 100 | – | > 100 | – | > 100 | – | > 100 | – | > 100 |
| Nc1nc(Nc2ccc3c(c2)CCC(N2CCCC2)CC3)nn1-c1cc2c(nn1)-c1ccccc1CCC2 (stereo not given) | 1.42 | 3.09 | 1.4 | 2.93 | 0.957 | 2.27 | 1.46 | 3.04 | 1.85 | 3.54 | 1.4 | 3.81 | 0.681 | 2.86 | 1.04 | 2.53 | 1.6 | 3.4 | 1.14 | 2.61 |
| Nc1c(O)c(S(=O)(=O)O)c(O)c2c1C(=O)c1ccccc1C2=O | 2.61 | 8.36 | 2.94 | 14.5 | 3.95 | > 100 | 5.85 | 28.1 | 2.32 | 7.27 | 2.53 | 7.77 | 1.9 | 4.91 | 2.25 | 6.21 | 3.8 | 52.4 | 2.91 | 9.73 |
| COP1(=S)OCC2CCC[C@@H]2O1 (stereo not given in full) | – | > 100 | – | > 100 | – | > 100 | – | > 100 | – | > 100 | – | > 100 | – | > 100 | – | > 100 | – | > 100 | – | > 100 |
| Oc1ccc(-c2nc3ccc4[nH]ncc4c3c3c2CCCC3)c2cccnc12 | 0.523 | 2.61 | 0.491 | 7.3 | 0.163 | 2.21 | 0.423 | 6.79 | 0.339 | 2.68 | 0.158 | 4.12 | 0.393 | 12.8 | 0.452 | 3.5 | 0.164 | 13.1 | 0.496 | 7.01 |
| COC(=O)c1cc2c(cc1Cl)SC(N(N(C)C)S(=O)(=O)c1ccc(Cl)cc1)=NS2(=O)=O | 13.8 | 40 | 13 | 37.8 | 15.8 | 32 | 17.1 | 44 | 18 | 51.2 | 17.1 | 53.4 | 11.8 | 27.5 | 20.5 | 59 | 17.3 | 50.2 | 19.2 | 53.3 |
| Cc1nc2ccc(NCCN(C)C)c3c(=O)c4cc(O)ccc4n1c23 | – | 9.06 | – | 9.94 | – | 15.9 | – | 13.2 | – | 5.87 | – | 6.23 | – | 0.904 | – | 13.4 | – | 7.06 | – | 12.5 |
| O=C1C(=O)c2c(nc3ncccn23)-c2ccccc21 | 0.169 | 0.307 | 0.204 | 0.5 | 0.182 | 0.343 | 0.215 | 0.67 | 0.173 | 0.316 | 0.198 | 0.602 | 0.257 | 0.711 | 0.243 | 0.532 | 0.247 | 0.722 | 1.85 | 3.35 |
